Data from the supplement of paper PMC10307832.

Assays:
Experiment in all cases: relative viability (nuclei count vs DMSO), 5 days (fraction); higher = more cells survive
[1] = compound: O=C(Nc1c[nH]nc1-c1nc2ccc(CN3CCOCC3)cc2[nH]1)NC1CC1 [AT9283] + C[C@]1(O)C[C@@H](c2nc(-c3ccc4ccc(-c5ccccc5)nc4c3)c3c(N)nccn32)C1 [Linsitinib] (partner 1 µM)
Outline: (§1)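 Relative viability divides the nuclei count in treated wells by that in vehicle wells. Lung cancer cell lines were seeded in 1536-well plates, dosed by pin tool the next day, and fixed and stained after 5 days in one step with final 0.05% Triton X-100, 1% formaldehyde and 1 ug/ml Hoechst. Dosing was a single drug or a fixed anchor-drug dose plus five library-drug doses (not always all listed) in √10 steps, and values are medians of duplicate plates imaged at 4×.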

[2] = compound: C#Cc1cccc(Nc2ncnc3cc(OCCOC)c(OCCOC)cc23)c1 [Erlotinib] + Cc1cc(Nc2cc(N3CCN(C)CC3)nc(Sc3ccc(NC(=O)C4CC4)cc3)n2)n[nH]1 [Tozasertib] (partner 0.1 µM)
Outline: as §1

[3] = compound: C#Cc1cccc(Nc2ncnc3cc(OCCOC)c(OCCOC)cc23)c1 [Erlotinib] + COc1cc2c(Oc3ccc(NC(=O)C4(C(=O)Nc5ccc(F)cc5)CC4)cc3F)ccnc2cc1OCCCN1CCOCC1 [Foretinib] (partner 0.25 µM)
Outline: as §1

[4] = compound: O=C(Nc1c[nH]nc1-c1nc2ccc(CN3CCOCC3)cc2[nH]1)NC1CC1 [AT9283] + Nc1ncn([C@H]2C[C@H](O)[C@@H](CO)O2)c(=O)n1 [Decitabine] (partner 2 µM)
Outline: as §1

[5] = compound: O=C(Nc1c[nH]nc1-c1nc2ccc(CN3CCOCC3)cc2[nH]1)NC1CC1 [AT9283] + C[C@@H](Oc1cc(-c2cnn(C3CCNCC3)c2)cnc1N)c1c(Cl)ccc(F)c1Cl [Crizotinib] (partner 1 µM)
Outline: as §1

Row | Cell Line | relative viability ([1]; first compound 0.003 µM) | relative viability ([1]; first compound 0.03 µM) | relative viability ([1]; first compound 0.09487 µM) | relative viability ([1]; first compound 0.3 µM) | relative viability ([2]; first compound 0.02 µM) | relative viability ([2]; first compound 0.2 µM) | relative viability ([2]; first compound 0.6325 µM) | relative viability ([2]; first compound 2 µM) | relative viability ([3]; first compound 0.02 µM) | relative viability ([3]; first compound 0.2 µM) | relative viability ([3]; first compound 0.6325 µM) | relative viability ([4]; first compound 0.003 µM) | relative viability ([4]; first compound 0.03 µM) | relative viability ([4]; first compound 0.09487 µM) | relative viability ([4]; first compound 0.3 µM) | relative viability ([5]; first compound 0.003 µM) | relative viability ([5]; first compound 0.03 µM) | relative viability ([5]; first compound 0.09487 µM) | relative viability ([5]; first compound 0.3 µM) | relative viability ([3]; first compound 2 µM)
1 | NCI-H838 | 1.01 | 0.247 | 0.217 | 0.197 | 0.293 | 0.273 | 0.283 | 0.25 | 1.14 | 0.992 | 1.09 | 0.436 | 0.293 | 0.265 | 0.226 | 0.877 | 0.367 | 0.246 | 0.186 | 
2 | BEN | 0.718 | 0.894 | 0.2 | 0.227 | 0.593 | 0.462 | 0.468 | 0.436 | 0.679 | 0.663 | 1 | 0.52 | 0.557 | 0.347 | 0.347 | 0.818 | 0.663 | 0.207 | 0.236 | 0.872
3 | SW 1573 | 0.917 | 0.413 | 0.223 | 0.184 | 0.183 | 0.197 | 0.156 | 0.226 | 0.886 | 0.911 | 0.895 | 0.394 | 0.175 | 0.171 | 0.143 | 0.698 | 0.376 | 0.219 | 0.157 | 0.9
4 | NCI-H1975 | 0.932 | 0.769 | 0.341 | 0.223 | 0.773 | 0.549 | 0.251 | 0.142 | 0.951 | 1.02 |  | 0.403 | 0.432 | 0.398 | 0.34 | 0.945 | 0.903 | 0.695 | 0.348 | 0.71
5 | LXF-289 | 1 | 0.47 | 0.132 | 0.12 | 0.195 | 0.218 | 0.208 | 0.117 | 0.924 | 0.937 |  | 0.354 | 0.423 | 0.214 | 0.139 | 0.829 | 0.511 | 0.151 | 0.138 | 0.874
6 | NCI-H1993 | 0.788 | 0.686 | 0.61 | 0.588 | 0.574 | 0.518 | 0.569 | 0.591 | 0.772 | 0.736 | 0.578 | 0.596 | 0.453 | 0.442 | 0.456 | 0.915 | 0.654 | 0.572 | 0.543 | 0.716
7 | NCI-H23 | 0.801 | 0.338 | 0.232 | 0.145 | 0.387 | 0.344 | 0.299 | 0.26 | 0.909 |  | 1.24 | 0.26 | 0.293 | 0.228 | 0.246 | 0.458 | 0.326 | 0.299 | 0.189 | 0.631
8 | SK-MES-1 | 1.07 | 0.933 | 0.846 | 0.17 | 0.925 | 0.929 | 0.648 | 0.536 | 1.03 | 0.635 |  | 0.396 | 0.334 | 0.306 | 0.138 | 1.02 | 0.883 | 0.84 | 0.256 | 0.357
9 | NCI-H2023 | 0.765 | 0.308 | 0.135 | 0.132 | 0.365 | 0.241 | 0.165 | 0.188 | 0.754 | 0.607 | 0.589 | 0.202 | 0.202 | 0.127 | 0.0969 | 0.704 | 0.471 | 0.196 | 0.123 | 0.406
10 | LCLC-97TM1 | 0.184 | 0.156 | 0.107 | 0.0936 | 0.285 | 0.204 | 0.203 | 0.172 | 0.894 | 0.89 | 0.963 | 0.199 | 0.175 | 0.104 | 0.089 | 0.273 | 0.157 | 0.128 | 0.121 | 0.791
11 | NCI-H322M | 0.932 | 0.682 | 0.478 | 0.425 | 0.42 | 0.374 | 0.331 | 0.314 | 0.925 | 0.619 | 0.565 | 0.775 | 0.531 | 0.588 | 0.462 | 0.888 | 0.611 | 0.446 | 0.337 | 0.45
12 | NCI-H1734 | 0.85 | 0.583 | 0.288 | 0.294 | 0.259 | 0.238 | 0.273 | 0.273 | 0.789 |  | 0.921 | 0.54 | 0.324 | 0.261 | 0.254 | 0.725 | 0.335 | 0.246 | 0.216 | 0.768
13 | HCC-366 | 0.71 | 0.319 | 0.0197 | 0.0206 | 0.0918 | 0.0854 | 0.0664 | 0.039 | 0.867 | 0.936 | 0.976 | 0.337 | 0.299 | 0.141 | 0.0851 | 0.547 | 0.179 | 0.105 | 0.0338 | 0.941
14 | NCI-H1437 | 1.06 | 0.691 | 0.181 | 0.158 | 0.406 | 0.403 | 0.448 | 0.357 | 1.31 | 1.23 | 1.24 | 0.47 | 0.599 | 0.426 | 0.306 | 1.04 | 0.732 | 0.443 | 0.243 | 1.2
15 | NCI-H661 | 0.513 | 0.474 | 0.252 | 0.295 | 0.344 | 0.381 | 0.341 | 0.394 | 1 | 0.921 | 1.1 | 0.579 | 0.422 | 0.406 | 0.272 | 0.986 | 0.571 | 0.409 | 0.452 | 0.705
16 | NCI-H1651 | 1.05 | 0.864 | 0.348 | 0.357 | 0.671 |  | 0.606 | 0.282 | 0.704 | 0.753 |  | 0.371 | 0.516 | 0.428 | 0.318 | 0.856 | 0.897 | 0.505 | 0.411 | 0.753
